{
  "source": "patent EP0831877B1",
  "about": "“METABOLIC EFFECTS OF CERTAIN GLUTATHIONE ANALOGS” (TELIK, INC., priority 1995, dated 1996)",
  "key": {"[1]": {"assay": "in vitro half-life / metabolism in mouse blood", "format": "in vitro ADME"}, "[2]": {"system": "HT-29 (human colon adenocarcinoma) cells", "assay": "modified clonogenic assay, potentiation of chlorambucil cytotoxicity", "format": "cell-based", "conditions": "chlorambucil, mean ±S.D. of 2-3 experiments; for DMF (dose modification factor), Diethyl ester: HT-29, dose tested 12.5 µM", "description": "HT-29 (human colon adenocarcinoma) cells were obtained from Dr. Roberto Ceriani (Cancer Research Fund of Contra Costa County, Walnut Creek, CA) and were used in log phase of growth unless otherwise specified. Chlorambucil (CMB) was obtained from Sigma (St. Louis, MO) and was dissolved in 100% ethanol. All GST inhibitors were dissolved in ethanol, DMSO, or water just prior to use. The same amount of solvent added to culture medium served as the vehicle control.\nIn a modified clonogenic assay for cytotoxicity, cells were suspended at 2 x 10^5 cells/ml in serum-free medium in the presence of vehicle or inhibitor. […] Cells were incubated for 2 hours, then varying doses of CMB were added. At the end of a second 2-hour incubation, cells were diluted to 7.5-10 x 10^3/ml in serum-containing medium and plated in quadruplicate at 200 µl/well in Microtest III microtiter plates.\nPlates were incubated for 6 days and assayed by a modified methylene blue method. Briefly, cells were fixed with 1.25% glutaraldehyde in PBS then stained with 0.05% methylene blue in distilled water. Plates were washed several times in distilled water to remove unretained dye and retained dye was resolubilized in 0.03 N HCl. Plates were read at 650 nm in a Molecular Devices Vmax plate reader (Molecular Devices, Redwood City, CA). […] A dose modification factor (DMF), a measure of potentiation of cytotoxicity, was calculated for each inhibitor by dividing the IC50 value of CMB without inhibitor treatment by the IC50 value for CMB with inhibitor treatment."}, "[3]": {"system": "VLB, a vinblastine-resistant variant of SKOV-3", "assay": "standard clonogenic assay, potentiation of drug toxicity, VLB", "format": "cell-based", "description": "; SKOV-3 an ovarian carcinoma, and VLB, a vinblastine-resistant variant of SKOV-3. Four chemotherapeutic drugs, chlorambucil, adriamycin, mitomycin C and doxorubicin were used as the toxic agents. In these assays, the cells were seeded at 300 cells/well in 2 ml of medium in 6-well plates in the presence of the compounds used in the invention as the diethyl esters. […]. After incubation for 1-2 hours to permit cells to attach, varying doses of the chemotherapeutic agents were added. At least three replicate wells were plated for each test condition and the plates were incubated for two weeks. Colonies were fixed in 95% ethanol and stained with crystal violet for colony counting. IC50 values were determined for the chemotherapeutic agent in the presence or absence of the compound used in the invention and dose modification factors were calculated by dividing the IC50 value of drug without the compound by the IC50 value of the drug with the compound."}, "bone marrow GM-CFU [4]": {"system": "bone marrow GM-CFU", "assay": "stimulation of bone marrow GM-CFU after administration to mice", "format": "in vivo, B6D2F1 mice", "conditions": "for most effective dose on bone marrow GM-CFU (Figure 4a): single treatment, harvest 24 hours", "description": "In an illustrative assay three B6D2F1 mice were treated with various doses of benzyl PG intraperitoneally.\nMice in the control group were injected with water or saline. Bone marrow cells were harvested 24 hours after drug treatment and added to alpha minimum essential medium (alpha MEM) supplemented with methylcellulose (0.8% w/v), fetal bovine serum (20% v/v), deionized BSA (1% w/v), Pokeweed mitogen-stimulated spleen-cell conditioned medium (PWM-SCCM)^1 (10% v/v) and gentamycin (50 Tg/ml). One ml aliquots were plated (four replicate plates) and incubated for seven days at 37 °C. […] Spleens were removed aseptically from four male B6D2F1 mice enforced through a 200 Tm wire mesh screen to obtain a single cell suspension. Ten ml of the suspension (2-4 X 10^7 cell/ml was added to 90 ml alpha-MEM supplemented with 1% deionized BSA, 50 Tg/ml gentamicin, 0.3% freshly reconstituted pokeweed antigen, 10 µM 2-mercaptoethanol. The mixture was incubated for 5 days at […] in a 5% CO2 atmosphere and the result-ing conditioned medium was centrifuged at 800g for ten minutes and filtered through a 0.22 Tm filter. Aliquots were kept frozen at […] until use.\nBone marrow was harvested 24 hours after administering the compounds and GM-CFU levels measured as described above."}, "[5]": {"system": "normal BDF1 mouse bone marrow erythroid (BFU-E) progenitor cells", "assay": "colony formation, mouse bone marrow BFU-E", "format": "cell-based", "description": "(§1) The effects are dose-dependent, usually in the range of 1.0 to 10.0 µM, and in most cases for cells stimulated by GM-CSF, G-CSF, M-CSF, Flt3/Flk-2 and Steel factor (stem cell factor/c-kit ligand). Of particular interest was the finding that TER199 enhances colony formation stimulated by combinations of cytokines. Additionally, the enhancing effect is more pronounced in human than in murine bone marrow."}, "[6]": {"system": "normal BDF1 mouse bone marrow multipotential (CFU-GEMM) progenitor cells", "assay": "colony formation, mouse bone marrow CFU-GEMM", "format": "cell-based", "conditions": "EPO + 50 ng/ml SLF", "description": "as §1"}, "bone marrow GM-CFU [7]": {"system": "bone marrow GM-CFU", "assay": "carboplatin-induced GM-CFU suppression in mice", "format": "in vivo", "conditions": "TER199 120mg/kg, i.p., carboplatin 90 mg/kg", "description": "Bone marrows were harvested 24 hours after administration of the second drug."}, "bone marrow GM-CFU [8]": {"system": "bone marrow GM-CFU", "assay": "cyclophosphamide-induced GM-CFU suppression in mice", "format": "in vivo"}, "peripheral blood cells": {"system": "peripheral blood cells", "assay": "peripheral blood response to 5-FU with oral TER199 in mice", "format": "in vivo", "conditions": "150 mg/kg 5-FU IP, 24 hours later oral 150 mg/kg TER199, versus 5-FU alone", "description": "The mice were bled through the retroorbital plexus and the blood samples were analyzed for changes in blood counts."}, "[9]": {"system": "CD34^+++ cells from human cord blood or bone marrow", "assay": "CD34+++ cell differentiation in the presence of cytokines", "format": "cell-based", "conditions": "0.1 µM-10 µM TER199, erythropoietin 1 unit/ml, IL-3 100 unit/ml"}, "bone marrow GM-CFU [10]": {"system": "bone marrow GM-CFU", "conditions": "TER199 90 mg/kg i.p. 1 hour prior to melphalan 10 mg/kg i.p."}},
  "note": "Values joined by “and” are separate entries in the source; they are usually repeats but may differ in a detail not shown here. Equal values may be shown once. Read-outs that look alike come from different tables or passages of the source. Marks after values point to notes of the source that are not given here.",
  "data": [
    {"compound": "CCOC(=O)[C@@H](N)CCC(=O)N[C@@H](CSCc1ccccc1)C(=O)N[C@@H](C(=O)OCC)c1ccccc1", "note": "[TER199, γE ethyl ester-C(Bz)-R-(-)-ϕG ethyl ester]", "values": [
      {"measurement": "half-life", "setting": "[1]", "result": "< 1", "unit": "min"},
      {"measurement": "DMF (dose modification factor), Diethyl ester", "setting": "[2]", "result": 1.65},
      {"measurement": "DMF (dose modification factor), Diethyl ester", "setting": "[2]; listed as γE-C(Bz)-ϕG diethyl ester", "result": "1.65 ± 0.04"},
      {"measurement": "DMF of DEE", "setting": "[2]; diethyl ester", "result": 1.651},
      {"measurement": "DMF for Mitomycin C", "setting": "[3]; 5 µM TER199", "result": "0.82 (5 µM TER199)^c"},
      {"measurement": "DMF for Doxorubicin", "setting": "[3]; TER199 at 25 µM", "result": 2.50},
      {"measurement": "DMF for Adriamycin", "setting": "[3]; TER199 at 25 µM, TER183 dose not given", "result": 2.50},
      {"measurement": "GM-CFU", "setting": "bone marrow GM-CFU [4]; 90 mg/kg intraperitoneally, marrow harvested 24 hours later, controls about 140", "result": "approximately 275 colonies/10^4 nucleated cells"},
      {"measurement": "most effective dose on bone marrow GM-CFU (Figure 4a)", "setting": "bone marrow GM-CFU [4]; IP administration", "result": "60 to 90", "unit": "mg/kg"},
      {"measurement": "effect on GM-CFU as a function of dosage, ester/amide forms (Figure 7)", "setting": "bone marrow GM-CFU [4]; bone marrow harvested 24 hours after administering", "result": "significantly more effective than the mixed ester amide (TER300)"},
      {"measurement": "most effective dose on bone marrow GM-CFU (Figure 4a)", "setting": "bone marrow GM-CFU [4]; oral administration", "result": "120 to 180", "unit": "mg/kg"},
      {"measurement": "time of maximum stimulation of GM-CFU (Figure 5)", "setting": "bone marrow GM-CFU [4]; single 60 mg/kg dose IP on day 0", "result": "day 2 and day 5"},
      {"measurement": "% change from control", "setting": "[5]; EPO 1 U/ml, TER199 0.1 µM", "result": 0, "unit": "%"},
      {"measurement": "Colony number", "setting": "[5]; EPO 1 U/ml, TER199 0.1 µM", "result": "2±1 and 4±1"},
      {"measurement": "Colony number", "setting": "[5]; EPO 1 U/ml, TER199 1.0 µM", "result": "2±1 and 3±1"},
      {"measurement": "% change from control", "setting": "[5]; EPO 1 U/ml, TER199 10 µM", "result": 0, "unit": "%"},
      {"measurement": "Colony number", "setting": "[5]; EPO 1 U/ml, TER199 10 µM", "result": "2±1 and 4±1"},
      {"measurement": "Colony number", "setting": "[5]; EPO + 50 ng/ml SLF, TER199 0.1 µM", "result": "8±1 and 9±1"},
      {"measurement": "Colony number", "setting": "[5]; EPO + 50 ng/ml SLF, TER199 1.0 µM", "result": "8±1 and 9±1"},
      {"measurement": "Colony number", "setting": "[5]; EPO + 50 ng/ml SLF, TER199 10 µM", "result": "8±1 and 9±1"},
      {"measurement": "% change from control", "setting": "[6]; TER199 0.1 µM", "result": 0, "unit": "%"},
      {"measurement": "Colony number", "setting": "[6]; TER199 0.1 µM", "result": "2±1"},
      {"measurement": "% change from control", "setting": "[6]; TER199 10 µM", "result": 0, "unit": "%"},
      {"measurement": "Colony number", "setting": "[6]; TER199 10 µM", "result": "2±1"},
      {"measurement": "carboplatin-induced GM-CFU suppression (Figure 12, panel A)", "setting": "bone marrow GM-CFU [7]", "result": "reduces carboplatin-induced GM-CFU suppression"},
      {"measurement": "cyclophosphamide-induced GM-CFU suppression (Figure 13, panel A)", "setting": "bone marrow GM-CFU [8]; TER199 120 mg/kg, i.p. 24 hours after cyclophosphamide 200 mg/kg, i.p.", "result": "reduces GM-CFU suppression"},
      {"measurement": "cyclophosphamide-induced GM-CFU suppression (Figure 13, panel B)", "setting": "bone marrow GM-CFU [8]; TER199 150 mg/kg, p.o.", "result": "similarly effective"},
      {"measurement": "lymphocytes (Figure 15c)", "setting": "peripheral blood cells", "result": "no differences were found"},
      {"measurement": "monocytes (Figure 15d)", "setting": "peripheral blood cells", "result": "statistically significant difference only on day 9"},
      {"measurement": "neutrophils (Figure 15b)", "setting": "peripheral blood cells", "result": "statistically significant difference was obtained only on day 9"},
      {"measurement": "total white cell counts (Figure 15a)", "setting": "peripheral blood cells", "result": "essentially no significant difference"},
      {"measurement": "BFU-E (Figure 16)", "setting": "[9]", "result": "modest positive effects"},
      {"measurement": "CFU-GEMM colony formation (Figure 16)", "setting": "[9]; steel factor 50 ng/ml", "result": "modest positive effects"},
      {"measurement": "GM-CFU", "setting": "bone marrow GM-CFU [10]", "result": "8 % of control value"}
    ]}
  ]
}
